EC50 data for 5 compounds are collected here from PubChem BioAssay AID651913 (NMMLSC, 2012).

This assay relates to MG13-hCCR5 cells, FAP-MG2p fluorogen binding, flow cytometry MCF. Kind of assay: FAP-tagged hCCR5 fluorogen binding interference – cell-based, FAP-tagged human CCR5, Powderset5, counter-screen for beta2AR agonist project, dose response (AID 651913).

As to `CN(CC(=O)N1CCN(c2ccc(F)cc2)CC1)S(=O)(=O)c1ccc(Br)cc1`, the half-maximal effective concentration (EC50) (usually the concentration needed to bring the measured effect to its halfway point) was 1030 nM.

For `CN(CC(=O)N1CCN(c2ccccn2)CC1)S(=O)(=O)c1ccc(Cl)cc1`, the EC50 is 10.8 nM.

`CCC1CCCCN1S(=O)(=O)c1ccc(NC(C)=O)cc1` (stereo not given): the EC50 was 455 nM.

On to `O=C(C1CCCN1S(=O)(=O)c1ccc(Cl)cc1)N1CCN(c2ccccn2)CC1` (stereo not given), for which the EC50 is 257 nM.

Regarding `CN(CC(=O)N1CCN(c2ccc(F)cc2)CC1)S(=O)(=O)c1cc(Cl)ccc1Cl`, the EC50 was 54.5 nM.
